PubChem BioAssay AID1259407 (Chemical Carcinogenesis Research Information System (CCRIS), 2018)
Calls of active or inactive are those of the source. No rule for the calls is given here.

System: CCRIS mutagenicity, Ames/micronucleus/aberration tests
Test: CCRIS mutagenicity studies
[1] = Test System: AMES SALMONELLA TYPHIMURIUM, Strain/Indicator: TA98, Metabolic Activation: NONE, Method: STANDARD PLATE
[2] = Test System: AMES SALMONELLA TYPHIMURIUM, Strain/Indicator: TA100, Metabolic Activation: NONE, Method: STANDARD PLATE

C=CC(=O)OCCO
mutagenic call (End Point: In vitro chromosomal aberrations, Test System: Chinese hamster lung (CHL/IU) cells, Metabolic Activation: Rat, Liver, S9, Phenobarbital and 5,6-benzoflavone): active; positive (structural changes and ploidy)
mutagenic call (Test System: AMES SALMONELLA TYPHIMURIUM, Strain/Indicator: TA102, Metabolic Activation: RAT, LIVER, S-9, PHENOBARBITAL AND 5,6-BENZOFLAVONE, Method: STANDARD PLATE): inactive; negative
mutagenic call (Test System: AMES SALMONELLA TYPHIMURIUM, Strain/Indicator: TA2638, Metabolic Activation: RAT, LIVER, S-9, PHENOBARBITAL AND 5,6-BENZOFLAVONE, Method: STANDARD PLATE): inactive; negative
mutagenic call (Test System: Ames Salmonella typhimurium, Strain/Indicator: TA98, Metabolic Activation: None, Method: Preincubation): inactive; negative
mutagenic call (Test System: Ames Salmonella typhimurium, Strain/Indicator: TA98, Metabolic Activation: Rat, Liver, S9, Sodium phenobarbital and 5,6-benzoflavone (10%), Method: Preincubation): inactive; negative
mutagenic call (Test System: Ames Salmonella typhimurium, Strain/Indicator: TA100, Metabolic Activation: None, Method: Preincubation): inactive; negative
mutagenic call (Test System: Ames Salmonella typhimurium, Strain/Indicator: TA100, Metabolic Activation: Rat, Liver, S9, Sodium phenobarbital and 5,6-benzoflavone (10%), Method: Preincubation): inactive; negative
mutagenic call (Test System: Ames Salmonella typhimurium, Strain/Indicator: TA1535, Metabolic Activation: None, Method: Preincubation): inactive; negative
mutagenic call (Test System: Ames Salmonella typhimurium, Strain/Indicator: TA1535, Metabolic Activation: Rat, Liver, S9, Sodium phenobarbital and 5,6-benzoflavone (10%), Method: Preincubation): inactive; negative
mutagenic call (Test System: Ames Salmonella typhimurium, Strain/Indicator: TA1537, Metabolic Activation: None, Method: Preincubation): inactive; negative
mutagenic call (Test System: Ames Salmonella typhimurium, Strain/Indicator: TA1537, Metabolic Activation: Rat, Liver, S9, Sodium phenobarbital and 5,6-benzoflavone (10%), Method: Preincubation): inactive; negative
mutagenic call (Test System: E. COLI, Strain/Indicator: WP2 (PKM101), Metabolic Activation: RAT, LIVER, S-9, PHENOBARBITAL AND 5,6-BENZOFLAVONE, Method: STANDARD PLATE): active; positive
mutagenic call (Test System: E. COLI, Strain/Indicator: WP2 UVRA (PKM101), Metabolic Activation: RAT, LIVER, S-9, PHENOBARBITAL AND 5,6-BENZOFLAVONE, Method: STANDARD PLATE): active; positive
mutagenic call (Test System: E. coli, Strain/Indicator: WP2uvrA/pKM101, Metabolic Activation: None, Method: Preincubation): active; positive
mutagenic call (Test System: MOUSE LYMPHOMA, Strain/Indicator: L5178Y (TK+/TK-), Metabolic Activation: NONE, Method: SUSPENSION/PLATE): active; positive

Cc1cc(N)cc([N+](=O)[O-])c1N
mutagenic call (Test System: AMES SALMONELLA TYPHIMURIUM, Strain/Indicator: TA98, Metabolic Activation: RAT, LIVER, S-9, AROCLOR 1254, Method: STANDARD PLATE): active; positive
mutagenic call (Test System: AMES SALMONELLA TYPHIMURIUM, Strain/Indicator: TA1538, Metabolic Activation: RAT, LIVER, S-9, AROCLOR 1254, Method: STANDARD PLATE): active; positive

C=CCN=C=S
mutagenic call (End Point: IN VITRO CHROMOSOMAL ABERRATIONS, Test System: CHINESE HAMSTER OVARY CELLS, Metabolic Activation: NONE): active; positive
mutagenic call (End Point: IN VITRO CHROMOSOMAL ABERRATIONS, Test System: CHINESE HAMSTER OVARY CELLS, Metabolic Activation: RAT, LIVER, S-9, AROCLOR 1254): active; positive
mutagenic call (End Point: IN VITRO CHROMOSOMAL ABERRATIONS, Test System: CHINESE HAMSTER OVARY CELLS, Metabolic Activation: RAT. LIVER, S-9, AROCLOR 1254): inactive; negative
mutagenic call (Test System: AMES SALMONELLA TYPHIMURIUM, Strain/Indicator: TA97, Metabolic Activation: NONE, Method: PREINCUBATION): inactive; negative
mutagenic call (Test System: AMES SALMONELLA TYPHIMURIUM, Strain/Indicator: TA97, Metabolic Activation: NONE, Method: PREINCUBATION (120 MIN)): inactive; negative
mutagenic call (Test System: AMES SALMONELLA TYPHIMURIUM, Strain/Indicator: TA97, Metabolic Activation: RAT, LIVER, S-9, AROCLOR 1254, Method: PREINCUBATION): inactive; negative
mutagenic call (Test System: AMES SALMONELLA TYPHIMURIUM, Strain/Indicator: TA97, Metabolic Activation: S-9, Method: PREINCUBATION (120 MIN)): inactive; negative
mutagenic call (Test System: AMES SALMONELLA TYPHIMURIUM, Strain/Indicator: TA98, Metabolic Activation: NONE, Method: PREINCUBATION (120 MIN)): inactive; negative
mutagenic call [1]: inactive; negative
mutagenic call (Test System: AMES SALMONELLA TYPHIMURIUM, Strain/Indicator: TA98, Metabolic Activation: RAT LIVER S-9, AROCLOR 1254, Method: STANDARD PLATE): active; positive
mutagenic call (Test System: AMES SALMONELLA TYPHIMURIUM, Strain/Indicator: TA98, Metabolic Activation: S-9, Method: PREINCUBATION (120 MIN)): inactive; negative
mutagenic call (Test System: AMES SALMONELLA TYPHIMURIUM, Strain/Indicator: TA98, Metabolic Activation: S-9, Method: STANDARD PLATE): inactive; negative
mutagenic call (Test System: AMES SALMONELLA TYPHIMURIUM, Strain/Indicator: TA100, Metabolic Activation: NONE, Method: PREINCUBATION (20, 60 OR 120 MIN)): inactive; negative
mutagenic call (Test System: AMES SALMONELLA TYPHIMURIUM, Strain/Indicator: TA100, Metabolic Activation: NONE, Method: PREINCUBATION (120 MIN)): inactive; negative
mutagenic call [2]: inactive; negative
mutagenic call (Test System: AMES SALMONELLA TYPHIMURIUM, Strain/Indicator: TA100, Metabolic Activation: RAT LIVER S-9, AROCLOR 1254, Method: STANDARD PLATE): active; positive
mutagenic call (Test System: AMES SALMONELLA TYPHIMURIUM, Strain/Indicator: TA100, Metabolic Activation: RAT, LIVER, S-9, AROCLOR 1254 (3.8 MG PROTEIN/ML), Method: PREINCUBATION (60 OR 120 MIN)): active; positive
mutagenic call (Test System: AMES SALMONELLA TYPHIMURIUM, Strain/Indicator: TA100, Metabolic Activation: RAT, LIVER, S-9, AROCLOR 1254 (3.8 OR 11.4 MG PROTEIN/ML), Method: PREINCUBATION (20 MIN)): inactive; negative
mutagenic call (Test System: AMES SALMONELLA TYPHIMURIUM, Strain/Indicator: TA100, Metabolic Activation: RAT, LIVER, S-9, AROCLOR 1254 (11.4 MG PROTEIN/ML), Method: PREINCUBATION (60 MIN)): inactive; negative
mutagenic call (Test System: AMES SALMONELLA TYPHIMURIUM, Strain/Indicator: TA100, Metabolic Activation: RAT, LIVER, S-9, AROCLOR 1254 (11.4 MG PROTEIN/ML), Method: PREINCUBATION (120 MIN)): active; positive
mutagenic call (Test System: AMES SALMONELLA TYPHIMURIUM, Strain/Indicator: TA100, Metabolic Activation: S-9, Method: PREINCUBATION (120 MIN)): inactive; negative
mutagenic call (Test System: AMES SALMONELLA TYPHIMURIUM, Strain/Indicator: TA100, Metabolic Activation: S-9, Method: STANDARD PLATE): inactive; negative
mutagenic call (Test System: AMES SALMONELLA TYPHIMURIUM, Strain/Indicator: TA102, Metabolic Activation: NONE, Method: PREINCUBATION): inactive; negative
mutagenic call (Test System: AMES SALMONELLA TYPHIMURIUM, Strain/Indicator: TA102, Metabolic Activation: RAT, LIVER, S-9, AROCLOR 1254, Method: PREINCUBATION): inactive; negative
mutagenic call (Test System: UDS RAT HEPATOCYTES, Strain/Indicator: THY-INCORP, Metabolic Activation: IN VIVO, Method: AUTORADIOGRAPHY): inactive; negative

Oc1ccc2ccc3[nH]c4ccc5ccccc5c4c3c2c1
mutagenic call [1]: active; positive
mutagenic call (Test System: AMES SALMONELLA TYPHIMURIUM, Strain/Indicator: TA98, Metabolic Activation: RAT, LIVER, S-9, 3-METHYLCHOLANTHRENE, Method: STANDARD PLATE): active; positive
mutagenic call [2]: active; positive
mutagenic call (Test System: AMES SALMONELLA TYPHIMURIUM, Strain/Indicator: TA100, Metabolic Activation: RAT, LIVER, S-9, 3-METHYLCHOLANTHRENE, Method: STANDARD PLATE): active; positive
mutagenic call (Test System: AMES SALMONELLA TYPHIMURIUM, Strain/Indicator: TM677, Metabolic Activation: NONE, Method: PREINCUBATION): inactive; negative
mutagenic call (Test System: AMES SALMONELLA TYPHIMURIUM, Strain/Indicator: TM677, Metabolic Activation: RAT, LIVER, S-9, 3-METHYLCHOLANTHRENE (1%), Method: PREINCUBATION): active; positive
mutagenic call (Test System: AMES SALMONELLA TYPHIMURIUM, Strain/Indicator: TM677, Metabolic Activation: RAT, LIVER, S-9, 3-METHYLCHOLANTHRENE (10%), Method: PREINCUBATION): active; positive
mutagenic call (Test System: AMES SALMONELLA TYPHIMURIUM, Strain/Indicator: TM677, Metabolic Activation: RAT, LIVER, S-9, AROCLOR 1254 (10%), Method: PREINCUBATION): active; positive
